Laboratory results reported in ChEMBL document CHEMBL1135204, “Synthesis and muscarinic M2 subtype antagonistic activity of unnatural ent-himbacine and an enantiomeric pair of (2'S,6'R)-diepihimbacine” (Bioorg Med Chem Lett, 2002).

Legend:
[1] = molecular target: T1, Muscarinic acetylcholine receptor M1 (Rattus norvegicus, UniProt P08482); assay: Binding affinity against the muscarinic M1 (cortex) subtype was evaluated using [3H]pirenzepine
T1 sequence (P08482 whole entry): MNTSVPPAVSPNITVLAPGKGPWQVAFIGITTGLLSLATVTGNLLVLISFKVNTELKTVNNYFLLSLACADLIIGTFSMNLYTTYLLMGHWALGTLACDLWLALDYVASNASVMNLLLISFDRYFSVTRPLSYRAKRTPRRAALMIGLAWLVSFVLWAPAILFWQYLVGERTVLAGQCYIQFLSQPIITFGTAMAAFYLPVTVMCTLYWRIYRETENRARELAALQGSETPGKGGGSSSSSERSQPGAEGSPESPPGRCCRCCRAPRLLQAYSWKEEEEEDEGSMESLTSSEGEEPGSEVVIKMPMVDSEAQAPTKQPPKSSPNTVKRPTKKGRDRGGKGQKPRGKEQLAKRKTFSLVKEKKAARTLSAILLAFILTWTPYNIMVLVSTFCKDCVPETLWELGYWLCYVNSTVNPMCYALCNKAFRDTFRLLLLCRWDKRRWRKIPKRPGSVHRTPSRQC

[2] = molecular target: T2, Muscarinic acetylcholine receptor M2 (Rattus norvegicus, UniProt P10980); assay: Binding affinity against the muscarinic M2 (brainstem) subtype was evaluated using [3H]quinuclidinyl benzilate; type: tissue-based
T2 sequence (P10980 whole entry): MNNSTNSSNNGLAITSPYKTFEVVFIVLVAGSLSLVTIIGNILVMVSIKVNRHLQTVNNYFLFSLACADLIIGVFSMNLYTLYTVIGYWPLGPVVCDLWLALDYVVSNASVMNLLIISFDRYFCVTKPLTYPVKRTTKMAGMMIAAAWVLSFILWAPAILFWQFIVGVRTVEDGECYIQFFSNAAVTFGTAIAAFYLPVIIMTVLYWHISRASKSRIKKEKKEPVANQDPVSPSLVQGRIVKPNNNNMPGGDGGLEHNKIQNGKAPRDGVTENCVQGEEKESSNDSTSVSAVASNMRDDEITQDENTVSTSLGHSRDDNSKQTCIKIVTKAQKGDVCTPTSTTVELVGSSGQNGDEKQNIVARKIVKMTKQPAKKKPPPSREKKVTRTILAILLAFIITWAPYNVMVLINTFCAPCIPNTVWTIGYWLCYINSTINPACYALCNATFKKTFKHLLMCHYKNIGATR

Row | SMILES | Ki [1] | Ki [2]
1 | C[C@@H]1OC(=O)[C@H]2C[C@H]3CCCC[C@@H]3[C@@H](/C=C/[C@@H]3CCC[C@@H](C)N3C)[C@@H]12 | 0.316 µM | 0.2 µM
2 | C[C@H]1OC(=O)[C@@H]2C[C@@H]3CCCC[C@H]3[C@H](/C=C/[C@H]3CCC[C@H](C)N3C)[C@H]12 | 0.316 µM | 0.2 µM
3 | C[C@@H]1CCC[C@@H](/C=C/[C@H]2[C@@H]3CCCC[C@H]3C[C@H]3C(=O)O[C@H](C)[C@@H]23)N1C (single isomer, unassigned; ent-1) | 1 µM | 0.794 µM
4 | C[C@@H]1OC(=O)[C@H]2C[C@H]3CCCC[C@@H]3[C@@H](/C=C/[C@H]3CCC[C@H](C)N3C)[C@@H]12 [HIMBACINE] | 0.0631 µM | 0.01 µM
